ChEMBL document CHEMBL1147653, “Identification of type 1 inosine monophosphate dehydrogenase as an antiangiogenic drug target” (J Med Chem, 2006)
pIC50: −log10 of the molar value. The source made the active and inactive calls. No cut-off for these calls is given here.

Assays:
[1] = tested on: HUVEC; experiment: Cell cycle arrest at G1 phase in HUVEC at 1 uM; assay type: functional; conditions: Homo sapiens
[2] = tested on: HUVEC; experiment: Cell cycle arrest at S phase in HUVEC at 1 uM in presence of 50 uM guanosine; assay type: functional, Homo sapiens
[3] = tested on: Jurkat; experiment: Antiproliferative activity against Jurkat T cells in presence of 20 uM guanine as measured by [3H]thymidine incorporation; assay type: functional, cell-based; conditions: Homo sapiens
[4] = tested on: HUVEC; experiment: Cell cycle arrest at G2/M phase in HUVEC at 1 uM in presence of 50 uM guanosine; assay type: functional, Homo sapiens
[5] = tested on: HUVEC; experiment: Antiproliferative activity against HUVEC as measured by [3H]thymidine incorporation; assay type: functional, cell-based; conditions: Homo sapiens
[6] = tested on: HUVEC; experiment: Cell cycle arrest at S phase in HUVEC at 1 uM; assay type: functional; conditions: Homo sapiens
[7] = species on record: Mus musculus; experiment: Inhibition of tumor-induced angiogenesis in RENCA mouse model; assay type: functional, organism-based
[8] = tested on: HUVEC; experiment: Cell cycle arrest at G2/M phase in HUVEC at 1 uM; assay type: functional; conditions: Homo sapiens
[9] = tested on: HUVEC; experiment: Antiproliferative activity against HUVEC in presence of 20 uM guanine as measured by [3H]thymidine incorporation; assay type: functional, cell-based; conditions: Homo sapiens
[10] = tested on: Mus musculus; experiment: Antiangiogenic activity in mouse at 60 mg/kg/day, sc; assay type: functional; conditions: route subcutaneous
[11] = tested on: HUVEC; experiment: Cell cycle arrest at G1 phase in HUVEC at 1 uM in presence of 50 uM guanosine; assay type: functional, Homo sapiens
[12] = tested on: Jurkat; experiment: Antiproliferative activity against Jurkat T cells as measured by [3H]thymidine incorporation; assay type: functional, cell-based; conditions: Homo sapiens

With `COc1c(C)c2c(c(O)c1C/C=C(\C)CCC(=O)O)C(=O)OC2` [MYCOPHENOLIC ACID] the inhibition at 1 µM [1] was 81%, the Inhibition [2] was 11.8% and the Activity [3] was “inactive”. It also gave an Inhibition [4] of 17%, a pIC50 [5] of 7.00 and an inhibition at 1 µM [6] of 6.5%. For the same molecule, the inhibition [7] was “Dose-dependent effect”, the inhibition at 1 µM [8] was 12.4% and the Activity [9] was “inactive”. The inhibition in vivo at 60 mg/kg/day [10] was 69%, the Inhibition [11] was 71% and the pIC50 [12] was 6.89.
